Results reported in ChEMBL document CHEMBL3822404, “Design, synthesis and biological evaluation of novel 3-alkylsulfanyl-4-amino-1,2,4-triazole derivatives” (Bioorg Med Chem Lett, 2016).
pIC50: −log10 of the molar value.

Columns and labels:
[1] = system: HeLa; experiment: Antiproliferative activity against human HeLa cells measured after 48 hrs by MTT assay; assay type: functional, cell-based
[2] = system: HepG2; experiment: Antiproliferative activity against human HepG2 cells measured after 48 hrs by MTT assay; assay type: functional, cell-based; settings: HepG2, 48 h
[3] = Antiproliferative activity against human PC3 cells measured after 48 hrs by MTT assay; assay type: functional, cell-based; settings: PC-3, 48 h
[4] = Antiproliferative activity against human HCT116 cells measured after 48 hrs by MTT assay; assay type: functional, cell-based; settings: HCT-116, 48 h
[5] = system: HEK293; experiment: Cytotoxicity against HEK293 cells measured after 48 hrs by MTT assay; assay type: cell-based; settings: Homo sapiens, HEK293, 48 h
[6] = system: HeLa; experiment: Induction of cell cycle arrest in human HeLa cells assessed as accumulation at S phase at 8 uM measured after 12 to 18 hrs by […] cell sorting analysis (reference value: 19.02%); assay type: functional
[7] = system: HeLa; experiment: Induction of cell cycle arrest in human HeLa cells assessed as accumulation at G0/G1 phase at 8 uM measured after 12 to 18 hrs by […] cell sorting analysis (reference value: 64.31%); assay type: functional
[8] = system: HeLa; experiment: Induction of cell cycle arrest in human HeLa cells assessed as accumulation at G0/G1 phase at 4 uM measured after 12 to 18 hrs by […] cell sorting analysis (reference value: 64.31%); assay type: functional
[9] = system: HeLa; experiment: Induction of cell cycle arrest in human HeLa cells assessed as accumulation at G2/M phase at 4 uM measured after 12 to 18 hrs by […] cell sorting analysis (reference value: 16.67%); assay type: functional
[10] = system: HeLa; experiment: Induction of cell cycle arrest in human HeLa cells assessed as accumulation at G2/M phase measured after 18 hrs by […] cell sorting analysis; assay type: functional, cell-based
[11] = system: HeLa; experiment: Induction of cell cycle arrest in human HeLa cells assessed as accumulation at G2/M phase at 2 uM measured after 12 to 18 hrs by […] cell sorting analysis (reference value: 16.67%); assay type: functional
[12] = system: HeLa; experiment: Induction of cell cycle arrest in human HeLa cells assessed as accumulation at G2/M phase at 8 uM measured after 12 to 18 hrs by […] cell sorting analysis (reference value: 16.67%); assay type: functional
[13] = system: HeLa; experiment: Induction of cell cycle arrest in human HeLa cells assessed as accumulation at S phase at 4 uM measured after 12 to 18 hrs by […] cell sorting analysis (reference value: 19.02%); assay type: functional
[14] = system: HeLa; experiment: Induction of cell cycle arrest in human HeLa cells assessed as accumulation at G0/G1 phase at 2 uM measured after 12 to 18 hrs by […] cell sorting analysis (reference value: 64.31%); assay type: functional
[15] = system: HeLa; experiment: Induction of cell cycle arrest in human HeLa cells assessed as accumulation at S phase at 2 uM measured after 12 to 18 hrs by […] cell sorting analysis (reference value: 19.02%); assay type: functional

Molecule `COc1cc(-c2nnc(SCC(=O)c3ccc(F)c(F)c3)n2N)cc(OC)c1OC` has a pIC50 [1] of under 4.00, a pIC50 [2] of under 4.00 and a pIC50 [3] of under 4.00. It also gave a pIC50 [4] of 4.98.

`COc1cc(-c2nnc(SCC(=O)c3ccc(Br)cc3)n2N)cc(OC)c1OC` gave a pIC50 [1] of 4.98, a pIC50 [2] of 4.03 and a pIC50 [3] of under 4.00. For the same molecule, the pIC50 [4] was 5.03.

`COc1cc(-c2nnc(SCC(=O)Nc3ccccc3)n2N)cc(OC)c1OC` showed a pIC50 [1] of 5.08, a pIC50 [2] of 4.30 and a pIC50 [3] of 4.42. The pIC50 [4] was 5.76.

For `COc1cc(-c2nnc(SCC(=O)c3cccc(Br)c3)n2N)cc(OC)c1OC`, the pIC50 [1] was 4.11, the pIC50 [2] was 4.25 and the pIC50 [3] was under 4.00. For the same molecule, the pIC50 [4] was 5.27.

For `COc1ccc(CNC(=O)CSc2nnc(-c3cc(OC)c(OC)c(OC)c3)n2N)cc1OC`, the pIC50 [1] was under 4.00, the pIC50 [2] was under 4.00 and the pIC50 [3] was under 4.00. It also gave a pIC50 [4] of under 4.00.

`COc1cc(-c2nnc(SCC(=O)Nc3ccccc3C)n2N)cc(OC)c1OC` showed a pIC50 [1] of under 4.00, a pIC50 [2] of under 4.00 and a pIC50 [3] of under 4.00. For the same molecule, the pIC50 [4] was under 4.00.

With `COc1cc(-c2nnc(SCC(=O)c3ccc(Cl)cc3)n2N)cc(OC)c1OC` the pIC50 [1] was 4.88, the pIC50 [2] was under 4.00 and the pIC50 [3] was under 4.00. The pIC50 [4] was 5.12.

`O=c1[nH]cc(F)c(=O)[nH]1` [FLUOROURACIL] showed a pIC50 [1] of 4.24, a pIC50 [3] of 4.24 and a pIC50 [4] of 4.16.

In the case of `COc1cc(-c2nnc(SCC(=O)c3ccccc3)n2N)cc(OC)c1OC`, the pIC50 [1] was under 4.00, the pIC50 [2] was 5.11 and the pIC50 [3] was under 4.00. It also gave a pIC50 [4] of 4.28.

`COc1cc(-c2nnc(SCC(=O)NCCc3ccccc3)n2N)cc(OC)c1OC` gave a pIC50 [1] of under 4.00, a pIC50 [2] of under 4.00 and a pIC50 [3] of 4.09. It also gave a pIC50 [4] of under 4.00.

Work on `COc1cccc(NC(=O)CSc2nnc(-c3cc(OC)c(OC)c(OC)c3)n2N)c1` yielded a pIC50 [5] of 4.00, a pIC50 [1] of 5.40 and a pIC50 [2] of under 4.00. It also gave a pIC50 [3] of under 4.00 and a pIC50 [4] of 6.17.

In the case of `COc1ccc(C(=O)CSc2nnc(-c3cc(OC)c(OC)c(OC)c3)n2N)cc1`, the pIC50 [5] was 4.00, the pIC50 [1] was 4.76 and the pIC50 [2] was under 4.00. It also gave a pIC50 [3] of 4.01 and a pIC50 [4] of 5.91.

In the case of `COc1ccc(CCNC(=O)CSc2nnc(-c3cc(OC)c(OC)c(OC)c3)n2N)cc1`, the pIC50 [1] was under 4.00, the pIC50 [2] was under 4.00 and the pIC50 [3] was 4.13. For the same molecule, the pIC50 [4] was under 4.00.

Molecule `COc1cc(-c2nnc(SCC(=O)c3ccc(C)cc3)n2N)cc(OC)c1OC` has an Activity [6] of 13.81%, an Activity [7] of 7.37% and an Activity [8] of 12.41%. The Activity [9] was 70.18%, the pIC50 [5] was 4.00 and the Activity [10] was “Dose-dependent effect”. It also gave an Activity [11] of 32.55%, a pIC50 [1] of 5.53 and an Activity [12] of 78.81%. For the same molecule, the pIC50 [2] was under 4.00, the pIC50 [3] was 4.50 and the Activity [13] was 17.42%. It also gave a pIC50 [4] of 6.43, an Activity [14] of 53.39% and an Activity [15] of 14.07%.

Molecule `COc1cc(-c2nnc(SCC(=O)NCCc3ccc(C)cc3)n2N)cc(OC)c1OC` has a pIC50 [1] of under 4.00, a pIC50 [2] of under 4.00 and a pIC50 [3] of 4.38. For the same molecule, the pIC50 [4] was under 4.00.

`COc1cc(-c2nnc(SCC(=O)NCc3ccc(Cl)cc3)n2N)cc(OC)c1OC` gave a pIC50 [1] of under 4.00, a pIC50 [2] of under 4.00 and a pIC50 [3] of under 4.00. It also gave a pIC50 [4] of under 4.00.

With `COc1cc(-c2nnc(SCC(=O)c3ccccc3F)n2N)cc(OC)c1OC` the pIC50 [1] was 4.10, the pIC50 [2] was 4.65 and the pIC50 [3] was 4.37. The pIC50 [4] was 4.97.

In the case of `COc1cc(-c2nnc(SCC(=O)Nc3ccccc3F)n2N)cc(OC)c1OC`, the pIC50 [5] was under 4.00, the pIC50 [1] was 4.42 and the pIC50 [2] was 4.73. It also gave a pIC50 [3] of 4.44 and a pIC50 [4] of 5.94.

With `COc1cc(-c2nnc(SCC(=O)Nc3ccc(C)cc3)n2N)cc(OC)c1OC` the pIC50 [5] was 4.10, the pIC50 [1] was 5.32 and the pIC50 [2] was under 4.00. For the same molecule, the pIC50 [3] was 4.37 and the pIC50 [4] was 5.46.

With `COc1cc(-c2nnc(SCC(=O)NCCc3ccc(Cl)cc3)n2N)cc(OC)c1OC` the pIC50 [1] was 4.10, the pIC50 [2] was under 4.00 and the pIC50 [3] was under 4.00. The pIC50 [4] was 4.40.

`COc1cc(-c2nnc(SCC(=O)c3ccc(C(F)(F)F)cc3)n2N)cc(OC)c1OC` showed a pIC50 [1] of 5.47, a pIC50 [2] of under 4.00 and a pIC50 [3] of under 4.00. For the same molecule, the pIC50 [4] was 4.78.

In the case of `COc1cc(-c2nnc(SCC(=O)c3ccc(F)cc3)n2N)cc(OC)c1OC`, the pIC50 [1] was 4.68, the pIC50 [2] was 4.04 and the pIC50 [3] was under 4.00. The pIC50 [4] was 5.49.

For `COc1cc(-c2nnc(SCC(=O)NCc3ccc(C)cc3)n2N)cc(OC)c1OC`, the pIC50 [1] was under 4.00, the pIC50 [2] was under 4.00 and the pIC50 [3] was 4.03. For the same molecule, the pIC50 [4] was under 4.00.

`COc1cc(-c2nnc(SCC(=O)NCCc3ccc(F)cc3)n2N)cc(OC)c1OC` showed a pIC50 [1] of 4.18, a pIC50 [2] of under 4.00 and a pIC50 [3] of 4.25. It also gave a pIC50 [4] of under 4.00.

Molecule `COc1cc(NC(=O)CSc2nnc(-c3cc(OC)c(OC)c(OC)c3)n2N)cc(OC)c1OC` has a pIC50 [1] of under 4.00, a pIC50 [2] of under 4.00 and a pIC50 [3] of under 4.00. For the same molecule, the pIC50 [4] was under 4.00.
